# How the values were obtained:
# [1] = system: effector memory T cells (TEM); assay: Kv1.3 expression, cytokine production and proliferation of TEM in activated PBMCs from IPEX subjects, with or without ShK-186 (flow cytometry, RT-QPCR); type: cell-based, human
# Description: This example is performed to evaluate the expression of Kv1.3 channels by TEM found in IPEX subjects compared to controls, and to characterize the responsiveness of IPEX subject samples to treatment with therapeutic peptides such as the ShK-based peptide, ShK-186, formulated into a pharmaceutical composition. To evaluate Kv1.3 expression, peripheral blood mononuclear cells from IPEX and healthy controls are isolated. In the first phase of the example, the cells are activated in vitro with anti-CD3 antibodies or mitogens and then subjected to immunostaining and multicolor flow cytometry.
# In the second phase, matching cell aliquots are analyzed by RT-QPCR for quantitation of Kv1.3 mRNA. In the third phase, matching cell aliquots are used to study the ability of ShK-186 to block the proinflammatory and proliferative potential of TEM from IPEX subjects versus controls. Cytokines (IFN-γ and IL-2, -4, -10, -17, and -21) and perforin are detected by intracellular cytokine staining and flow cytometry in resting or activated cells in the presence or absence of ShK-186. In this example, ten IPEX and ten normal controls are studied.
# Peripheral blood mononuclear cells (PBMCs) are evaluated by multiparameter flow cytometry for cell surface expression of CD4 and CD25 and intracellular FOXP3. FACS sorting of all stimulated and stained samples will also be performed.
# [2] = system: IPEX and secondary conditions related to IPEX; assay: Administration of effective amounts to subjects with IPEX (additional studies); type: in vivo; details: diabetes, thyroid dysfunction, enteropathy, eczema and others
substance,measurement,setting,value
(L-PhosphoTyr)-AEEAc-RSCIDTIPKSRCTAFQCKHSMKYRLSFCRKTCGTC-amide [ShK-186],proliferation of TEM,[1]; PBMCs from IPEX subjects vs controls,reduces
same,expression of Kv1.3 channels by TEM,"[1]; PBMCs from IPEX subjects vs healthy controls, activated with anti-CD3 antibodies or mitogens",reduces
same,"IFN-γ and IL-2, -4, -10, -17, and/or -21 production by TEM","[1]; intracellular cytokine staining and flow cytometry, resting or activated cells",reduces
same,clinically relevant improvements in IPEX and secondary conditions related to IPEX,[2],produces clinically relevant improvements

# Source: US20160000869A1, “METHODS OF TREATING IPEX SYNDROME USING TOXIN-BASED PHARMACEUTICAL COMPOSITIONS” (KINETA ONE, LLC, priority 2013, published 2016)
